Source: patent US12692241B2, “Substituted triazine compound” (Nico Therapeutics, Inc., priority 2021, dated 2026)

tested on: IL-1β production in THP-1 cells (LPS and ATP; NLRP3 inflammasome activation); assay: THP-1 IL-1β production inhibitory test; format: cell-based, human; details: Homo sapiens, THP-1, 2 h, PMA-differentiated THP-1 cells, LPS 50 ng/mL and ATP 5 mM, 2 hours, ELISA; read-out: IC50 (nM), IL-1β production
Protocol: THP-1 IL-1β Production Inhibitory Test
To THP-1 cells, 50 ng/mL PMA (phorbol myristate acetate, SIGMA, P1585) was added at 37° C. and then the cells were cultured for 2 days. […] The cells were cultured at 37° C. for 15 minutes. LPS (lipopolysaccharide, SIMGA, L2880) and ATP (adenosine triphosphate, SIGMA, A2383) were added such that the final concentrations of them became 50 ng/mL and 5 mM, respectively. The cells were cultured at 37° C. for 2 hours. The supernatant was collected and the concentration of IL-1β was measured by ELISA (DuoSet ELISA human IL-1β, R&D Systems, DY201). The concentration of IL-1β was plotted against the logarithm of the concentration of the test compound, and the IC50 value was calculated by sigmoidal Emax model nonlinear regression analysis.

SMILES | IC50 [nM]
Cc1nc(NCCCO)nnc1-c1ccc(C(F)(F)F)cc1O [Example 3] | 69
Cc1nc(NCC(C)(C)CO)nnc1-c1ccc(C(F)(F)F)cc1O [Example 9] | 59
CO[C@H](C)CNc1nnc(-c2ccc(C(F)(F)F)cc2O)c(C)n1 [Example 10] | 40
Cc1nc(NC2CCS(=O)(=O)CC2)nnc1-c1ccc(C(F)(F)F)cc1O [Example 12] | 53
Cc1nc(N[C@H]2C[C@](C)(O)C2)nnc1-c1ccc(C(F)(F)F)cc1O [Example 13] | 260
CC[C@@H](O)CNc1nnc(-c2ccc(C(F)(F)F)cc2O)c(C)n1 [Example 14] | 62
Cc1nc(NCC2(CO)CCC2)nnc1-c1ccc(C(F)(F)F)cc1O [Example 15] | 100
Cc1nc(N[C@@H]2COC[C@H]2O)nnc1-c1ccc(C(F)(F)F)cc1O [Example 16] | 88
Cc1nc(NCC2(O)CCC2)nnc1-c1ccc(C(F)(F)F)cc1O [Example 17] | 66
Cc1nc(NC[C@@H]2CCCO2)nnc1-c1ccc(C(F)(F)F)cc1O [Example 18] | 88
Cc1nc(N[C@@H]2COCC[C@H]2O)nnc1-c1ccc(C(F)(F)F)cc1O [Example 21] | 290
Cc1nc(N[C@H]2[C@@H]3COC[C@@H]32)nnc1-c1ccc(C(F)(F)F)cc1O [Example 24] | 40
Cc1nc(N[C@@H]2CCCC[C@H]2O)nnc1-c1ccc(C#N)cc1O [Example 25] | 77
Cc1nc(N[C@H]2CC[C@H](O)CC2)nnc1-c1ccc(C(F)(F)F)cc1O [Example 26] | 62
Cc1nc(NCc2cccnn2)nnc1-c1ccc(C(F)(F)F)cc1O [Example 28] | 630
Cc1nc(NC2(CO)COC2)nnc1-c1ccc(C(F)(F)F)cc1O [Example 29] | 84
Cc1nc(NC(C)(C)CO)nnc1-c1ccc(C(F)(F)F)cc1O [Example 33] | 150

SMILES | IC50 [nM]
Cc1nc(NC2(CCO)CC2)nnc1-c1ccc(C(F)(F)F)cc1O [Example 34] | 49
Cc1nc(N[C@@H]2CC[C@H](O)C2)nnc1-c1ccc(C(F)(F)F)cc1O [Example 35] | 50
Cc1nc(N[C@H]2CCCC[C@@H]2O)nnc1-c1ccc(C(F)(F)F)cc1O [Example 41] | 310
Cc1nc(N[C@@H]2CCCC[C@H]2O)nnc1-c1ccc(F)cc1O [Example 53] | 63
COc1ccc(-c2nnc(N[C@H]3C[C@@](C)(O)C3)nc2C)c(O)c1 [Example 60] | 38
Cc1nc(N[C@@H]2CNC(=O)C2)nnc1-c1ccc(C(F)(F)F)cc1O [Example 63] | 200
Cc1nc(N[C@H]2CC[C@]2(C)O)nnc1-c1ccc(C(F)(F)F)cc1O [Example 64] | 62
Cc1nc(N[C@@H]2CNC2=O)nnc1-c1ccc(C(F)(F)F)cc1O [Example 65] | 110
Cc1nc(N[C@H]2CNC(=O)C2)nnc1-c1ccc(C(F)(F)F)cc1O [Example 66] | 150
Cc1nc(NC[C@H](O)C(F)(F)F)nnc1-c1ccc(C(F)(F)F)cc1O [Example 68] | 57
Cc1nc(N[C@H]2CCN(C)C2=O)nnc1-c1ccc(C(F)(F)F)cc1O [Example 74] | 620
Cc1nc(N[C@H]2C[C@@](C)(O)C2)nnc1-c1ccc(C2CC2)cc1O [Example 77] | 67
Cc1ccc(-c2nnc(N[C@@H]3CCC[C@H](O)C3)nc2C)c(O)c1 [Example 81] | 42
Cc1nc(N[C@@H]2CCC[C@H](O)C2)nnc1-c1ccc(OC(F)(F)F)cc1O [Example 84] | 38
Cc1nc(NCC(C)(C)O)nnc1-c1ccc(C(F)(F)F)cc1O [Example 85] | 57
Cc1nc(NCC(F)F)nnc1-c1ccc(C(F)(F)F)cc1O [Example 87] | 130
Cc1nc(Nc2cnn(CCO)c2)nnc1-c1ccc(C(F)(F)F)cc1O [Example 89] | 230

Stronger by IC50, values ahead:

IC50 [nM] | SMILES
7.6 | Cc1nc(N[C@@H]2CCCC[C@H]2O)nnc1-c1ccc(C(F)(F)F)cc1O [Example 1, 2-(3-{[(1R,2R)-2-hydroxycyclohexyl]amino}-5-methyl-1,2,4-triazin-6-yl)-5-(trifluoromethyl)phenol]
32 | Cc1nc(NC[C@H](C)CO)nnc1-c1ccc(C(F)(F)F)cc1O [Example 2]
35 | Cc1nc(NC[C@@H](C)O)nnc1-c1ccc(C(F)(F)F)cc1O [Example 4]
21 | Cc1nc(N[C@@H]2CCC[C@H]2O)nnc1-c1ccc(C(F)(F)F)cc1O [Example 5]
26 | Cc1nc(NC2CCCCC2)nnc1-c1ccc(C(F)(F)F)cc1O [Example 6]
28 | Cc1nc(N[C@H]2CCC(F)(F)C2)nnc1-c1ccc(C(F)(F)F)cc1O [Example 7]
6.9 | Cc1nc(NC2CC(C)(O)C2)nnc1-c1ccc(C(F)(F)F)cc1O (stereo not shown) [Example 8]
15 | Cc1nc(N[C@@H]2CCOC[C@H]2O)nnc1-c1ccc(C(F)(F)F)cc1O [Example 11]
7.4 | Cc1nc(N[C@@H]2CCCC[C@H]2O)nnc1-c1ccc(Cl)cc1O [Example 19]
34 | Cc1nc(N[C@H]2CCCC[C@H]2O)nnc1-c1ccc(C(F)(F)F)cc1O [Example 20]
13 | Cc1nc(NC2CC3(CC(O)C3)C2)nnc1-c1ccc(C(F)(F)F)cc1O (stereo not shown) [Example 22]
23 | Cc1nc(NC2(CO)CCC2)nnc1-c1ccc(C(F)(F)F)cc1O [Example 23]
18 | Cc1nc(N[C@@H]2CC[C@@H](O)C2)nnc1-c1ccc(C(F)(F)F)cc1O [Example 30]
10 | Cc1nc(N[C@@H]2CCOC[C@H]2O)nnc1-c1ccc(OC(F)(F)F)cc1O [Example 32]
17 | Cc1nc(N[C@@H]2CCCC[C@H]2O)nnc1-c1ccc(C(C)C)cc1O [Example 36]
11 | Cc1ccc(-c2nnc(N[C@@H]3CCCC[C@H]3O)nc2C)c(O)c1 [Example 37]
11 | Cc1nc(NC23CC(CO)(C2)C3)nnc1-c1ccc(C(F)(F)F)cc1O [Example 38]
19 | Cc1nc(N[C@@H]2C[C@H]3C[C@@H]2[C@@H](O)C3)nnc1-c1ccc(C(F)(F)F)cc1O [Example 39]
22 | Cc1nc(N[C@@H]2CCCC[C@@H]2O)nnc1-c1ccc(C(F)(F)F)cc1O [Example 40]
28 | Cc1nc(N[C@@H]2CCCNC2=O)nnc1-c1ccc(C(F)(F)F)cc1O [Example 42]
19 | Cc1nc(N[C@@H]2CCNC2=O)nnc1-c1ccc(C(F)(F)F)cc1O [Example 43]
7 | Cc1nc(N[C@H]2CCNC2=O)nnc1-c1ccc(C(F)(F)F)cc1O [Example 44]
24 | Cc1nc(N[C@H]2CCCNC2=O)nnc1-c1ccc(C(F)(F)F)cc1O [Example 45]
30 | Cc1nc(N[C@@H]2CCCCNC2=O)nnc1-c1ccc(C(F)(F)F)cc1O [Example 46]

IC50 [nM] | SMILES
8.8 | Cc1nc(N[C@@H]2CCCC[C@@]2(C)O)nnc1-c1ccc(C(F)(F)F)cc1O [Example 47]
34 | Cc1nc(N[C@@H]2CCCC(F)(F)[C@H]2O)nnc1-c1ccc(C(F)(F)F)cc1O [Example 48]
14 | Cc1nc(N[C@H]2C[C@@](C)(O)C2)nnc1-c1ccc(Cl)cc1O [Example 49]
31 | Cc1nc(N[C@H]2C[C@@](C)(O)C2)nnc1-c1ccc(OC(F)(F)F)cc1O [Example 50]
33 | Cc1ccc(-c2nnc(N[C@H]3C[C@@](C)(O)C3)nc2C)c(O)c1 [Example 51]
21 | Cc1ccc(-c2nnc(N[C@@H]3CCOC[C@H]3O)nc2C)c(O)c1 [Example 52]
7.3 | Cc1nc(N[C@@H]2CCCC[C@@]2(C)O)nnc1-c1ccc(Cl)cc1O [Example 54]
11 | Cc1ccc(-c2nnc(N[C@@H]3CCCC[C@@]3(C)O)nc2C)c(O)c1 [Example 55]
12 | Cc1nc(NC[C@@H](C)O)nnc1-c1ccc(C2CC2)cc1O [Example 56]
9.3 | Cc1nc(N[C@@H]2CCCC[C@@]2(C)O)nnc1-c1ccc(OC(F)(F)F)cc1O [Example 58]
36 | COc1ccc(-c2nnc(N[C@@H]3CCOC[C@H]3O)nc2C)c(O)c1 [Example 61]
28 | Cc1nc(N[C@H]2CNC2=O)nnc1-c1ccc(C(F)(F)F)cc1O [Example 62]
9.6 | Cc1nc(N[C@@H]2CCCC[C@H]2O)nnc1-c1ccc(C2CC2)cc1O [Example 67]
30 | Cc1nc(N[C@@H]2CCC(F)(F)C[C@H]2O)nnc1-c1ccc(C(F)(F)F)cc1O [Example 69]
10 | Cc1nc(N[C@H]2CCNC2=O)nnc1-c1ccc(Cl)cc1O [Example 70]
8.2 | Cc1ccc(-c2nnc(N[C@H]3CCNC3=O)nc2C)c(O)c1 [Example 71]
8.3 | Cc1nc(N[C@H]2CCNC2=O)nnc1-c1ccc(OC(F)(F)F)cc1O [Example 72]
16 | Cc1nc(N[C@@H]2CCCCC[C@H]2O)nnc1-c1ccc(C(F)(F)F)cc1O [Example 76]
27 | Cc1nc(N[C@@H]2CCOC[C@H]2O)nnc1-c1ccc(C2CC2)cc1O [Example 78]
14 | Cc1nc(N[C@@H]2CCCC[C@@H](O)C2)nnc1-c1ccc(C(F)(F)F)cc1O [Example 79]
12 | Cc1nc(N[C@@H]2CCOC[C@@]2(C)O)nnc1-c1ccc(C(F)(F)F)cc1O [Example 80]
30 | Cc1nc(N[C@@H]2CCC[C@H](O)C2)nnc1-c1ccc(Cl)cc1O [Example 82]
32 | Cc1nc(N[C@@H]2CCC[C@H](O)C2)nnc1-c1ccc(C2CC2)cc1O [Example 83]
12 | CC(=O)NCCCCNc1nnc(-c2ccc(C(F)(F)F)cc2O)c(C)n1 [Example 86]
